Consider one compound from US11471448B2 (priority 2020, dated 2022).

Data set [1] has as its system patients with severe COVID-19 pneumonia. The data set is described as follows: Randomized, double-blind, placebo-controlled Phase 2/3 study of opaganib in COVID-19 pneumonia (baseline FiO2 up to 60% subgroup).
Data set [2] relates to patients with COVID-19 pneumonia. The data set is described as follows: Randomized, double-blind, placebo-controlled Phase 2a study of opaganib in COVID-19 pneumonia. The format is in vivo, human. From the text: This was a phase 2a, proof of concept, multi-center randomized double-blind, parallel arm, placebo-controlled study. After informed consent was obtained, patients entered a screening phase for no more than 3 days, to determine eligibility. […] Treatment assignments remained blinded to the patient, investigator and hospital staff, as well as the sponsor. As there was no consensus for a definitive treatment specifically targeting the SARS-CoV-2 virus causing COVID-19 (Wilson, 2020), standard of care referred to regional, institutional or physician directed therapies, that were implemented during the COVID-19 pandemic.
Study drug was to be administered every day for 14 days (Day 1 to Day 14), unless the patient had been discharged from the hospital without requiring supplemental oxygen, in which case study drug would only be administered to Day 10.
All participants were followed up for 4 weeks after their last dose of study drug, which may have occurred at the end of the 2-week double-blind treatment phase or after premature study drug discontinuation, based upon patient or physician determination. The maximum duration of study participation was up to 45 days (including up to 3 days screening; 2 weeks DB treatment phase and 4-weeks off-study drug follow-up)
• 1. Adult male or female≥18 to ≤80 years of age • 2. Proven COVID-19 infection per RT-PCR assay of a pharyngeal sample (nasopharyngeal or oropharyngeal) AND pneumonia defined as radiographic opacities on chest X-ray • 3. The patient requires supplemental oxygen at baseline • 4. The patient, guardian or legal representative has signed a written IRB-approved informed consent Exclusion: • 1. Any co-morbidity that may add risk to the treatment in the judgement of the investigator. • 2. Requiring intubation and mechanical ventilation • 3. Oxygen saturation≥95% on room air • 4. Any preexisting respiratory condition that requires intermittent or continuous ambulatory oxygen prior to hospitalization • 5. Patient is, in the investigator's clinical judgement, unlikely to survive >72 hours • 6. Pregnant (positive serum test within 3 days prior to randomization) or nursing women • 7. Unwillingness or inability to comply with procedures required in this protocol. • 8. Corrected QT (QTc) interval on electrocardiogram (ECG) >470 ms for females or >450 ms for males, calculated using Friedericia's formula (QTcF) • 9. AST (SGOT) or ALT (SGPT) >2.5× upper limit of normal (ULN) • 10. Bilirubin>1.5×ULN (except where bilirubin increase is due to Gilbert's Syndrome) • 11. Serum creatinine>2.0×ULN • 12. Absolute neutrophil count<1000 cells/mm^3 • 13. Platelet count<75,000/mm^3 • 14. Hemoglobin<8.0 g/dL • 15. Currently taking medications that are sensitive CYP3A4, CYP2C9 or CYP2C19 substrates and have a narrow therapeutic index • 16. Currently taking medications that are strong inducers or inhibitors of CYP2D6 and CYP3A4 • 17. Currently taking warfarin, apixaban, argatroban or rivaroxaban • 18. Current drug or alcohol abuse • 19. Currently participating in a clinical study assessing pharmacological treatments, including anti-viral studies Number of Subjects: […]

Data set [3] concerns human bronchial epithelial cells (HBEC).

Structures can show the parent of a compound that is named as a salt.

`O=C(NCc1ccncc1)C12CC3CC(C1)CC(c1ccc(Cl)cc1)(C3)C2` [opaganib, 3-(4-chlorophenyl)-adamantane-1-carboxylic acid (pyridin-4-ylmethyl) amide, hydrochloride salt]: in data set [1] (500 mg Q12 hours, 14 days), the “overall adverse events vs. placebo group” value is “balanced”. Also, the “patients reaching room air by Day 14 (no supplemental oxygen for at least 24 hours)” value in data set [1] (baseline FiO2 up to 60%, 90/117 patients, placebo 85/134 (63.5%)) was 77%. Moreover, the “efficacy benefit in mortality, Sensitivity Analysis” value in data set [1] (baseline FiO2 up to 60%, nominal p-value=0.033) is 64%. In addition, in data set [1] (baseline FiO2 up to 60%, placebo 16/134), the “mortality (deaths/patients), Sensitivity Analysis” value is recorded as 5/117. In addition, in data set [1] (baseline FiO2 up to 60%, vs. placebo, nominal p-value=0.033), the “efficacy benefit in reaching room air by Day 14” value is 21%. The “median time to discharge” value in data set [1] (baseline FiO2≤60% (251 patients), placebo 14 days) amounted to 10 days. Also, the “Time to a score of <=3 on the WHO Ordinal Scale: Kaplan-Meier Median” value in data set [1] (baseline FiO2≤60%, 95% CI (7.00-9.00), placebo 10.00) worked out at 8.00 days. In addition, in data set [1] (baseline FiO2≤60%, N = 117), the “Patients With an Improvement of 2 or More on the WHO Ordinal Scale Compared to Baseline by Day 14” value is listed as 93 (79.49) n (%), the “Time to Discharge by day 42: Number of Events” value is recorded as 81 (69.2) n (%) and the “Time to a score of <=3 on the WHO Ordinal Scale: Number of Events” value is 93 (79.5) n (%). In addition, in data set [1] (baseline FiO2≤60%, p-value 0.0022), the “Time to Discharge by day 42: Difference and 95% CI (opaganib vs. placebo)” value is −4.48 (−7.34, −1.62) days. In data set [1] (baseline FiO2≤60%, p-value 0.023), the “Difference in Rates (Opaganib-Placebo), improvement of 2 or more on the WHO Ordinal Scale by Day 14” value was found to be 13.82%. Also, the “Time to Discharge by day 42: Kaplan-Meier Mean (Restricted Mean Analysis)” value in data set [1] (baseline FiO2≤60%, placebo 17.89) is listed as 13.41 days. For the same compound, the “mortality (deaths/patients)” value in data set [1] (mITT with baseline FiO2 up to 60%, through Day 42, placebo 21/134) is given as 7/117. Also, the reduction in mortality in data set [1] (mITT with baseline FiO2 up to 60%, vs. placebo, nominal p-value=0.019) is 62%. The “patients with serious adverse events (SAEs) vs. placebo arm” value in data set [2] (500 mg Q12 hours up to 14 days) is on record as “fewer patients”. Moreover, the safety result in data set [2] (500 mg Q12 hours up to 14 days plus standard of care, vs. placebo) is reported as “safe”. For the same compound, in data set [2] (control arm 46.7%), the “reduction from baseline of the medial total oxygen requirement (AUC) over 14 days” value is given as 68.0%. The “proportion of patients discharged by Day 14” value in data set [2] (control arm 55.6%) was 73.7%. In addition, the “proportion of patients reaching room air and no longer requiring oxygen support by Day 14” value in data set [2] (mITT sensitivity, control arm 22.2%) turned out to be 52.6%. Also, the “proportion of patients with 50% reduction in supplemental oxygen by day 14” value in data set [2] (mITT sensitivity, control arm 66.7%) is recorded as 89.5%. For the same compound, the “patients with adverse events such that study drug was terminated” value in data set [2] (opaganib arm, one patient in placebo arm) is given as “Two”. In addition, the cell viability result in data set [3] is “remained viable”. Also, the “50% cytotoxicity reached in the concentration range tested” value in data set [3] (human) is given as “neither 50% inhibition nor 50% cytotoxicity were reached”.
